Species: Rattus norvegicus
Test: DrugMatrix - Regimen: Daily Repeat
Format: toxicity, organism-based, Sprague-Dawley
Design: regimen Daily Repeat, gender Male, age 6-8 weeks
Conditions: in vivo, po, route oral GAVAGE, […]; for ABSOLUTE BASOPHIL / ABSOLUTE EOSINOPHIL / ABSOLUTE LYMPHOCYTE / ABSOLUTE MONOCYTE / ABSOLUTE SEGMENTED NEUTROPHIL / BASOPHIL / EOSINOPHIL / ERYTHROCYTE COUNT / HEMATOCRIT / HEMOGLOBIN / LEUKOCYTE COUNT / LYMPHOCYTE / MEAN CORPUSCULAR HEMOGLOBIN / MEAN CORPUSCULAR HEMOGLOBIN CONCENTRATION / MEAN CORPUSCULAR VOLUME / MONOCYTE / NEUTROPHIL / NUCLEATED RED BLOOD CELLS / PLATELET COUNT: tissue Blood; for ALANINE AMINOTRANSFERASE / ALBUMIN / ALKALINE PHOSPHATASE / ASPARTATE AMINOTRANSFERASE / BLOOD UREA NITROGEN / CARBON DIOXIDE / CHLORIDE / CHOLESTEROL / CREATINE PHOSPHOKINASE / CREATININE / GLUCOSE / LACTATE DEHYDROGENASE / LIPASE / PHOSPHORUS / POTASSIUM / SODIUM / TOTAL BILIRUBIN / TOTAL PROTEIN / URIC ACID: tissue Plasma
[1] = 3 mg/kg, 120 h, dose level Low, time 5 day
[2] = 300 mg/kg, 72 h, dose level High, time 3 day
[3] = 300 mg/kg, 120 h, dose level High, time 5 day

Structure (SMILES): CC#C[C@]1(O)CC[C@H]2[C@@H]3CCC4=CC(=O)CCC4=C3[C@@H](c3ccc(N(C)C)cc3)C[C@@]21C [MIFEPRISTONE]
- ABSOLUTE BASOPHIL [1]: 0 CELLS/uL
- ABSOLUTE EOSINOPHIL [1]: 0 CELLS/uL
- ABSOLUTE LYMPHOCYTE [1]: 7739.67 CELLS/uL
- ABSOLUTE MONOCYTE [1]: 116.67 CELLS/uL
- ABSOLUTE SEGMENTED NEUTROPHIL [1]: 1310.33 CELLS/uL
- BASOPHIL [1]: 0%
- EOSINOPHIL [1]: 0%
- ERYTHROCYTE COUNT [1]: 4.91 x10E6/uL
- HEMATOCRIT [1]: 31.8%
- HEMOGLOBIN [1]: 12.53 G/DL
- LEUKOCYTE COUNT [1]: 9.17 x10E3/uL
- LYMPHOCYTE [1]: 84.33%
- MEAN CORPUSCULAR HEMOGLOBIN [1]: 25.53 pg
- MEAN CORPUSCULAR HEMOGLOBIN CONCENTRATION [1]: 39.43 G/DL
- MEAN CORPUSCULAR VOLUME [1]: 64.83 fL
- MONOCYTE [1]: 1.33%
- NEUTROPHIL [1]: 14.33%
- NUCLEATED RED BLOOD CELLS [1]: 0 /100WBC
- PLATELET COUNT [1]: 1194.67 x10E3/uL
- ALANINE AMINOTRANSFERASE [1]: 61.67 u/L
- ALBUMIN [1]: 4.13 G/DL
- ALKALINE PHOSPHATASE [1]: 340.33 u/L
- ASPARTATE AMINOTRANSFERASE [1]: 84 u/L
- BLOOD UREA NITROGEN [1]: 13.33 mg/dL
- CARBON DIOXIDE [1]: 30.33 mmol/L
- CHLORIDE [1]: 97.67 MEQ/L
- CHOLESTEROL [1]: 64.67 mg/dL
- CREATINE PHOSPHOKINASE [1]: 193.33 u/L
- CREATININE [1]: 0.14 mg/dL
- GLUCOSE [1]: 154.33 mg/dL
- LACTATE DEHYDROGENASE [1]: 87 u/L
- LIPASE [1]: 9.33 u/L
- PHOSPHORUS [1]: 10.8 mg/dL
- POTASSIUM [1]: 5.65 MEQ/L
- SODIUM [1]: 143.37 MEQ/L
- TOTAL BILIRUBIN [1]: 0.13 mg/dL
- TOTAL PROTEIN [1]: 5.9 G/DL
- URIC ACID [1]: 0.73 mg/dL
- ABSOLUTE BASOPHIL [2]: 0 CELLS/uL
- ABSOLUTE EOSINOPHIL [2]: 0 CELLS/uL
- ABSOLUTE LYMPHOCYTE [2]: 6590.67 CELLS/uL
- ABSOLUTE MONOCYTE [2]: 75.33 CELLS/uL
- ABSOLUTE SEGMENTED NEUTROPHIL [2]: 634 CELLS/uL
- BASOPHIL [2]: 0%
- EOSINOPHIL [2]: 0%
- ERYTHROCYTE COUNT [2]: 5.5 x10E6/uL
- HEMATOCRIT [2]: 33.8%
- HEMOGLOBIN [2]: 13.33 G/DL
- LEUKOCYTE COUNT [2]: 7.3 x10E3/uL
- LYMPHOCYTE [2]: 90.67%
- MEAN CORPUSCULAR HEMOGLOBIN [2]: 24.3 pg
- MEAN CORPUSCULAR HEMOGLOBIN CONCENTRATION [2]: 39.47 G/DL
- MEAN CORPUSCULAR VOLUME [2]: 61.57 fL
- MONOCYTE [2]: 1%
- NEUTROPHIL [2]: 8.33%
- NUCLEATED RED BLOOD CELLS [2]: 0 /100WBC
- PLATELET COUNT [2]: 1129.67 x10E3/uL
- ALANINE AMINOTRANSFERASE [2]: 63 u/L
- ALBUMIN [2]: 3.77 G/DL
- ALKALINE PHOSPHATASE [2]: 417.67 u/L
- ASPARTATE AMINOTRANSFERASE [2]: 107.67 u/L
- BLOOD UREA NITROGEN [2]: 14.33 mg/dL
- CARBON DIOXIDE [2]: 28 mmol/L
- CHLORIDE [2]: 102.67 MEQ/L
- CHOLESTEROL [2]: 54.33 mg/dL
- CREATINE PHOSPHOKINASE [2]: 371.67 u/L
- CREATININE [2]: 0.32 mg/dL
- GLUCOSE [2]: 160.67 mg/dL
- LACTATE DEHYDROGENASE [2]: 97.67 u/L
- LIPASE [2]: 11 u/L
- PHOSPHORUS [2]: 9.53 mg/dL
- POTASSIUM [2]: 4.8 MEQ/L
- SODIUM [2]: 144.33 MEQ/L
- TOTAL BILIRUBIN [2]: 0.17 mg/dL
- TOTAL PROTEIN [2]: 5.53 G/DL
- URIC ACID [2]: 0.37 mg/dL
- ABSOLUTE BASOPHIL [3]: 0 CELLS/uL
- ABSOLUTE EOSINOPHIL [3]: 48.67 CELLS/uL
- ABSOLUTE LYMPHOCYTE [3]: 8343 CELLS/uL
- ABSOLUTE MONOCYTE [3]: 151.67 CELLS/uL
- ABSOLUTE SEGMENTED NEUTROPHIL [3]: 790 CELLS/uL
- BASOPHIL [3]: 0%
- EOSINOPHIL [3]: 0.67%
- ERYTHROCYTE COUNT [3]: 5.36 x10E6/uL
- HEMATOCRIT [3]: 32.73%
- HEMOGLOBIN [3]: 12.93 G/DL
- LEUKOCYTE COUNT [3]: 9.33 x10E3/uL
- LYMPHOCYTE [3]: 89%
- MEAN CORPUSCULAR HEMOGLOBIN [3]: 24.17 pg
- MEAN CORPUSCULAR HEMOGLOBIN CONCENTRATION [3]: 39.53 G/DL
- MEAN CORPUSCULAR VOLUME [3]: 61.13 fL
- MONOCYTE [3]: 1.67%
- NEUTROPHIL [3]: 8.67%
- NUCLEATED RED BLOOD CELLS [3]: 0 /100WBC
- PLATELET COUNT [3]: 1290.33 x10E3/uL
- ALANINE AMINOTRANSFERASE [3]: 84.33 u/L
- ALBUMIN [3]: 3.8 G/DL
- ALKALINE PHOSPHATASE [3]: 386 u/L
- ASPARTATE AMINOTRANSFERASE [3]: 91 u/L
- BLOOD UREA NITROGEN [3]: 15.33 mg/dL
- CARBON DIOXIDE [3]: 30.33 mmol/L
- CHLORIDE [3]: 97.67 MEQ/L
- CHOLESTEROL [3]: 86 mg/dL
- CREATINE PHOSPHOKINASE [3]: 250 u/L
- CREATININE [3]: 0.3 mg/dL
- GLUCOSE [3]: 148.33 mg/dL
- LACTATE DEHYDROGENASE [3]: 74.67 u/L
- LIPASE [3]: 25.67 u/L
- PHOSPHORUS [3]: 8.03 mg/dL
- POTASSIUM [3]: 5.82 MEQ/L
- SODIUM [3]: 142.7 MEQ/L
- TOTAL BILIRUBIN [3]: 0.1 mg/dL
- TOTAL PROTEIN [3]: 6 G/DL
- URIC ACID [3]: 0.3 mg/dL

Reference: ChEMBL document CHEMBL3885881, “DrugMatrix”
